# Assay results: US10433548B2, “Biocidal compositions comprising iron chelators” (Arch Chemicals, Inc., priority 2012, dated 2019)
# Where two headings read alike, the source gives them in different places.
# How the values were obtained:
# Assay in all cases: Minimum Inhibitory Concentration (MIC) test, 96-well microtiter plate
# Type in all cases: cell-based
# [1] = tested on: C. pyrenoidosa; parameters: unit not given here
# [2] = tested on: R. subcapitata; parameters: unit not given here
# [3] = tested on: C. albicans; parameters: unit not given here
# Procedure: (§1) Activities of antimicrobial compositions of the present invention were tested against a range of typical skin microorganisms in a Minimum Inhibitory Concentration (MIC) test. MICs for the organisms were determined in a standard 96-well microtiter plate assay in Brain Heart Infusion Broth (BHI) for P. acnes; Tryptic Soy Broth (TSB) for the remaining bacteria; Ushijima Broth for M. furfur; Sabouraud Dextrose Broth (SDB) for other fungi. Samples were tested in duplicate on separate plates. For bacteria and fungi plates, samples were serially diluted into double strength media on the microtiter plates. The bacterial or fungal inocula, suspended in sterile deionized water, were then added to the wells in 1:1 ratio to the medium. The final concentration of bacteria in the wells was 5×10^5 CFUs/mL, the final concentration of fungi was 5×10^4 cells or spores/mL. Plates were incubated: anaerobically at 35° C. for 7 days for P. acnes; aerobically at 35° C. for 2 days for the remaining bacteria and aerobically at 35° C. for 7 days for M. furfur; aerobically at 28° C. for 7 days for T. mentagrophytes.
# [4] = tested on: E. hirae; parameters: unit not given here
# Procedure: as §1
# [5] = tested on: P. aeruginosa; parameters: unit not given here
# Procedure: as §1
# [6] = tested on: P. faveolarum; parameters: unit not given here
# Procedure: as §1
# [7] = tested on: S. aureus; parameters: unit not given here
# Procedure: as §1
# [8] = tested on: P. acnes; conditions: for MIC: Cutibacterium acnes
# Procedure: as §1
# [9] = tested on: A. brasiliensis; parameters: unit not given here
# Procedure: as §1
# [10] = tested on: A. pullulans; parameters: unit not given here
# Procedure: as §1
# [11] = tested on: B. subtilis; parameters: unit not given here
# Procedure: as §1
# [12] = tested on: M. furfur; parameters: unit not given here
# Procedure: as §1
# [13] = tested on: S. epidermidis; parameters: unit not given here
# Procedure: as §1
# [14] = tested on: T. mentagrophytes; parameters: unit not given here
# Procedure: as §1
# [15] = tested on: E. coli; conditions: Active ZPT alone or plus chelator or chelator + Zn(II); Molar Ratio HBED 10×, 8-HQ 5×, 8-HQ + Zn(II) 1×, 2-HPNO 10×
# Procedure: as §1
# [16] = concentration of Propiconazole, alone or with potentiator, Molar Eq (Pot:PROP) 10:1
# [17] = concentration of BIT, BIT alone or with potentiator, Molar Eq (Pot:BIT) 10:1
# [18] = concentration of ZPT, ZPT alone or with potentiator, Molar Eq (Pot:ZPT) 10:1, 8-HQ-Zn 1:1
# [19] = concentration of BBIT, BBIT alone or with potentiator, Molar Eq (Pot:BBIT) 10:1
# [20] = concentration of IPBC, IPBC alone or with potentiator, Molar Eq (Pot:IPBC) 10:1
# [21] = Active ZPT alone or plus chelator or chelator + Zn(II), Molar Ratio HBED 10×, 8-HQ 5×, 8-HQ + Zn(II) 1×, 2-HPNO 10×
Compound,"MIC C. pyrenoidsa [1, 16]","MIC R. subcapitata [2, 16]","MIC C. albicans [3, 16]","MIC E. hirae [4, 16]","MIC P. aeruginosa [5, 16]","MIC P. faveolarum [6, 16]","MIC S. aureus [7, 16]","MIC C. pyrenoidsa [1, 17]","MIC C. pyrenoidsa [1, 18]","MIC R. subcapitata [2, 17]","MIC R. subcapitata [2, 18]","MIC A. brasiliensis [9, 17]","MIC A. brasiliensis [9, 18]","MIC A. pullulans [10, 17]","MIC B. subtilis [11, 17]","MIC B. subtilis [11, 18]","MIC C. albicans [3, 18]","MIC M. furfur [12, 18]","MIC P. aeruginosa [5, 17]","MIC P. faveolarum [6, 17]",other results
"CCCC1COC(Cn2cncn2)(c2ccc(Cl)cc2Cl)O1 (stereo not shown) [Propiconazole, propiconazole]",20.63-82.5,20.63-41.25,41.25-100.00,165.00,165.00,20.63-41.25,82.5-165.00,,,,,,,,,,,,,,
"O=C(OOC(=O)c1ccccc1)c1ccccc1 [Benzoyl Peroxide, benzoyl peroxide]",,,,,,,,,,,,,,,,,,,,,"MIC ([8]; Benzoyl Peroxide without chelator or with chelator, Molar Eq. HBED 10×, 8-HQ 5×, DTPA 10×, Desferrioxamine 1×, read-out: MIC values against P. acnes, Benzoyl Peroxide): 200 µg/mL"
zinc dihydroxyacetate [DHA-Zn],10.31,1.29,0.64,20.63,165.00,1.93,41.25,2.03,0.98,2.03,0.98,6.09,7.81,2.03,1.52,0.98,3.91,1.95,32.50,0.25,"MIC B. subtilis [11, 16]: 30.94; MIC P. aeruginosa [5, 18]: 31.25; MIC P. faveolarum [6, 18]: 0.05; MIC S. epidermidis [13, 18]: 3.91; MIC T. mentagrophytes [14, 18]: 0.49"
"O=c1cccccc1[O-].O=c1cccccc1[O-].[Zn+2] [Tropolone-Zn, zinc(tropolone)2]",2.58,1.29,0.97,0.32,41.25,0.32,0.64,0.76,0.98,1.02,0.49,1.02,1.95,0.24,0.13,0.24,0.73,0.73,8.13,0.19,"MIC C. pyrenoidsa [1, 19]: 1.25; MIC C. pyrenoidsa [1, 20]: 0.51; MIC R. subcapitata [2, 19]: 0.94; MIC R. subcapitata [2, 20]: 0.51; MIC A. brasiliensis [9, 19]: 0.94; MIC A. pullulans [10, 19]: 0.31; MIC B. subtilis [11, 19]: 0.31; MIC B. subtilis [11, 20]: 0.51; MIC B. subtilis [11, 16]: 0.64; MIC C. albicans [3, 20]: 1.02; MIC E. hirae [4, 20]: 0.25; MIC P. aeruginosa [5, 19]: 20.00; MIC P. aeruginosa [5, 20]: 32.5; MIC P. aeruginosa [5, 18]: 15.63; MIC P. faveolarum [6, 19]: 0.23; MIC P. faveolarum [6, 20]: 0.38; MIC P. faveolarum [6, 18]: 0.05; MIC S. aureus [7, 20]: 0.51; MIC S. epidermidis [13, 18]: 0.18; MIC T. mentagrophytes [14, 18]: 0.18"
glucoheptanoic acid zinc salt [Gluco-heptanoate-Zn],15.47,0.97,82.50,20.63,165.00,1.93,41.25,,,,,,,,,,,,,,"MIC C. pyrenoidsa [1, 19]: 1.25; MIC R. subcapitata [2, 19]: 1.88; MIC A. brasiliensis [9, 19]: 2.50; MIC A. pullulans [10, 19]: 5.00; MIC B. subtilis [11, 19]: 1.25; MIC B. subtilis [11, 16]: 20.63; MIC P. aeruginosa [5, 19]: 80.00; MIC P. faveolarum [6, 19]: 0.16"
"CCCCn1sc2ccccc2c1=O [BBIT, butylbenzisothiazolinone]",,,,,,,,,,,,,,,,,,,,,"MIC C. pyrenoidsa [1, 19]: 1.25-2.5; MIC R. subcapitata [2, 19]: 1.25-15; MIC A. brasiliensis [9, 19]: 1.25-5; MIC A. pullulans [10, 19]: 2.5-5; MIC B. subtilis [11, 19]: 1.88-2.5; MIC P. aeruginosa [5, 19]: 80.00; MIC P. faveolarum [6, 19]: 1.25-5"
"O=C(O)CN(CCN(CC(=O)O)CC(=O)O)CCN(CC(=O)O)CC(=O)O [DTPA, diethylenetriaminepentaacetic acid]",,,,,,,,0.51,,0.51,,16.25,,2.03,2.03,,,,8.13,<0.06,"MIC C. pyrenoidsa [1, 19]: 1.25; MIC R. subcapitata [2, 19]: 0.94; MIC A. brasiliensis [9, 19]: 1.25; MIC A. pullulans [10, 19]: 0.63; MIC B. subtilis [11, 19]: 2.50; MIC P. aeruginosa [5, 19]: 20.00; MIC P. faveolarum [6, 19]: 0.16; MIC values against P. acnes, Benzoyl Peroxide ([8]; Benzoyl Peroxide without chelator or with chelator, Molar Eq. HBED 10×, 8-HQ 5×, DTPA 10×, Desferrioxamine 1×): 6.25 ppm; MIC values against P. acnes, Salicylic Acid ([8]; Salicylic Acid without chelator or with chelator, Molar Eq. HBED 10×, 8-HQ 5×, DTPA 10×, Desferrioxamine 1×): 3.13 ppm"
"O=C(O)c1ccccc1O [Salicylic Acid, salicylic acid]",,,,,,,,,,,,,,,,,,,,,"MIC ([8]; Salicylic Acid without chelator or with chelator, Molar Eq. HBED 10×, 8-HQ 5×, DTPA 10×, Desferrioxamine 1×, read-out: MIC values against P. acnes, Salicylic Acid): 100 µg/mL"
"CC(=O)N(O)CCCCCNC(=O)CCC(=O)N(O)CCCCCNC(=O)CCC(=O)N(O)CCCCCN [Desferrioxamine, desferrioxamine]",,,,,,,,,,,,,,,,,,,,,"MIC ([8]; read-out: MIC values against P. acnes, Benzoyl Peroxide): 25 µg/mL; MIC ([8]; read-out: MIC values against P. acnes, Salicylic Acid): 25 µg/mL"
"O=C(CC(=O)C(F)(F)F)c1cccs1.[Zn] [Then-Zn, thenoyl trifluoro acetone zinc salt]",,,,,,,,2.03,,1.02,,32.50,,4.06,1.52,,,,32.50,0.13,"MIC C. pyrenoidsa [1, 20]: 0.38; MIC R. subcapitata [2, 20]: 1.02; MIC B. subtilis [11, 20]: 4.06; MIC C. albicans [3, 20]: 2.03; MIC E. hirae [4, 20]: 8.13; MIC P. aeruginosa [5, 20]: 65.0; MIC P. faveolarum [6, 20]: 0.51; MIC S. aureus [7, 20]: 13.25"
"Oc1cccc2cccnc12.[Zn] [8-HQ-Zn, 8-hydroxyquinoline zinc salt]",,,,,,,,,0.73,,1.95,,15.63,,,0.98,7.81,1.95,,,"MIC M. furfur [12, 21]: 1.95; MIC P. aeruginosa [5, 21]: 31.5; MIC P. aeruginosa [5, 18]: 31.25; MIC P. faveolarum [6, 18]: 0.24; MIC S. epidermidis [13, 21]: 1.95; MIC S. epidermidis [13, 18]: 1.95; MIC T. mentagrophytes [14, 21]: 3.91; MIC T. mentagrophytes [14, 18]: 3.91; MIC E. Coli [15]: 7.81"
O=C(O)CN(CCN(CC(=O)O)Cc1ccccc1O)Cc1ccccc1O.[Zn] [HBED-Zn],,,,,,,,,0.98,,0.49,,7.81,,,1.95,3.91,0.98,,,"MIC M. furfur [12, 21]: 0.98; MIC P. aeruginosa [5, 21]: 15.63; MIC P. aeruginosa [5, 18]: 15.63; MIC P. faveolarum [6, 18]: 0.24; MIC S. epidermidis [13, 21]: 3.91; MIC S. epidermidis [13, 18]: 3.91; MIC T. mentagrophytes [14, 21]: 1.46; MIC T. mentagrophytes [14, 18]: 1.46; MIC E. Coli [15]: 3.91"
"O=c1[nH]sc2ccccc12 [BIT, benzisothiazolinone]",,,,,,,,4.06-8,,8.13,,16-32.5,,4.06-8,1.02-4,,,,32.50,4.06-16,
